Results reported in patent US9012431B2, “Boron-containing small molecules as anti-inflammatory agents” (Anacor Pharmaceuticals, Inc., priority 2008, dated 2015).
Read-outs that look alike come from different tables or passages of the source.

Experiments:
TNF-α = test: Cytokine assay, TNF-α release from PBMC; format: cell-based; details: Homo sapiens, PBMC, 24 h, 1 μg/mL LPS, supernatant at 24 hours
Procedure, shortened: (§1)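 Human PBMC (frozen, thawed), RPMI 1640 + 10% FBS; compound at 10, 1, 0.1, 0.01 μM from 10 mM DMSO stock, n=3; cytokine release read.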

IL-2 = test: Cytokine assay, IL-2 release from PBMC; format: cell-based; details: human PBMC, 20 ug/mL PHA, supernatant at 24 hours
Procedure, shortened: as §1

[1] = tested on: TNF-α secretion from peripheral blood mononuclear cells (PBMCs); test: TNF-α secretion from PBMCs stimulated by LPS; format: cell-based, human; details: PBMC
From the text: (§2) Compounds were screened by a biochemical assay against PDE4 enzyme and cell-based cytokine release assays using PBMCs stimulated by LPS or phytohemagglutinin (PHA).

IL-10 = test: Cytokine assay, IL-10 release from PBMC; format: cell-based; details: human PBMC, 20 ug/mL PHA, supernatant at 48 hours
Procedure, shortened: as §1

PDE2 = target: T1, PDE2 (Homo sapiens, UniProt O00408); test: PDE2 inhibition; format: biochemical
T1 construct: made in house; host or cells: baculoviral expression system

[2] = tested on: IL-6 production by human PBMCs; test: IL-6 production by LPS- or PHA-stimulated PBMCs; format: cell-based
female CBA/J mice = test: Local lymph node assay (hypersensitivity response); format: in vivo
PDE1A3 = target: T2, PDE1A3 (Homo sapiens, UniProt P54750); test: PDE1 inhibition; format: biochemical
T2 construct: made in house; host or cells: baculoviral expression system

IFN-γ = test: Cytokine assay, IFN-γ release from PBMC; format: cell-based; details: human PBMC, 20 ug/mL PHA, supernatant at 24 hours
Procedure, shortened: as §1

[3] = tested on: phosphodiesterase 4 (PDE4) enzyme derived from human U937 cells; test: PDE4 enzyme activity (enzyme derived from human U937 cells); format: biochemical; details: versus substrate cAMP
From the text: The structure-activity relationships of novel boron-containing anti-inflammatory agents was investigated.
as §2

PDE4Cat = tested on: T3, PDE4Cat; test: PDE4Cat inhibition; format: biochemical; details: standard: Rolipram
T3 construct: Recombinant human PDE enzymes were expressed in a baculoviral system.

shrews (Suncus murinus) = details: shrew (Suncus murinus), in vivo, po
[4] = tested on: IFN-γ secretion from PBMCs; test: IFN-γ secretion from PBMCs stimulated with PHA; format: cell-based, human; details: PBMC
From the text: as §2

[5] = tested on: IL-10 production by human PBMCs; test: IL-10 production by LPS- or PHA-stimulated PBMCs; format: cell-based
[6] = tested on: IL-1β production by human PBMCs; test: IL-1β production by LPS- or PHA-stimulated PBMCs; format: cell-based
[7] = tested on: IL-2 secretion from PBMCs; test: IL-2 secretion from PBMCs stimulated with PHA; format: cell-based, human; details: PBMC
From the text: as §2

MCP-1 and PGE2 = test: Release of chemokine MCP-1 and PGE2; format: cell-based
From the text: (§3) This activity is explained in part by the inhibition of phosphodiesterase-4 (PDE-4).

[8] = tested on: IL-23 production from human THP-1 macrophages; test: IL-23 production by THP-1 cells stimulated with IFN-g and LPS; format: cell-based
IL-5 = test: Cytokine assay, IL-5 release from PBMC; format: cell-based; details: human PBMC, 20 ug/mL PHA, supernatant at 48 hours
Procedure, shortened: as §1

[9] = tested on: IL-5 production by human PBMCs; test: IL-5 production by LPS- or PHA-stimulated PBMCs; format: cell-based
[10] = tested on: Salmonella typhimurium strains TA98, TA100, TA1535, and TA1537; test: Bacterial mutagenicity assay with/without Aroclor-induced S9 (Salmonella); format: cell-based; details: up to 5000 μg per plate; presence or absence of Aroclor-induced S9 liver fraction
[11] = tested on: TNF-α, IFN-γ, IL-1μ, IL-2, IL-4, IL-5, IL-6, IL-8, IL-10, IL-12, and IL-23; test: Release of pro-inflammatory cytokines (summary statement); format: cell-based
From the text: as §3

all four PDE4 isoforms = test: PDE4 isoform inhibition; format: biochemical
PDE5 = PDE5 (Homo sapiens, UniProt O76074); test: PDE5 inhibition; format: biochemical
[12] = tested on: CD-1 (Crl.) derived male mice; test: Phorbol Ester Induced Mouse Ear Edema Model; format: in vivo; details: topical, 6 h, 1 mg/ear × 2 topical, vehicle not given, ear swelling 6 hours after PMA
Procedure, shortened: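 Test compounds in acetone:ethanol 1:1 were applied topically to both ears 30 min before and 15 min after PMA challenge; dexamethasone positive control followed the same schedule. Ear thickness was measured by micrometer 6 h after PMA, and percent inhibition was calculated from ear-thickness increase versus vehicle controls.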

hERG-channel = hERG-channel (Homo sapiens, UniProt Q12809); test: hERG-channel block; format: biochemical; details: C17 at 1 μM
Chain of hERG-channel (Q12809 whole entry): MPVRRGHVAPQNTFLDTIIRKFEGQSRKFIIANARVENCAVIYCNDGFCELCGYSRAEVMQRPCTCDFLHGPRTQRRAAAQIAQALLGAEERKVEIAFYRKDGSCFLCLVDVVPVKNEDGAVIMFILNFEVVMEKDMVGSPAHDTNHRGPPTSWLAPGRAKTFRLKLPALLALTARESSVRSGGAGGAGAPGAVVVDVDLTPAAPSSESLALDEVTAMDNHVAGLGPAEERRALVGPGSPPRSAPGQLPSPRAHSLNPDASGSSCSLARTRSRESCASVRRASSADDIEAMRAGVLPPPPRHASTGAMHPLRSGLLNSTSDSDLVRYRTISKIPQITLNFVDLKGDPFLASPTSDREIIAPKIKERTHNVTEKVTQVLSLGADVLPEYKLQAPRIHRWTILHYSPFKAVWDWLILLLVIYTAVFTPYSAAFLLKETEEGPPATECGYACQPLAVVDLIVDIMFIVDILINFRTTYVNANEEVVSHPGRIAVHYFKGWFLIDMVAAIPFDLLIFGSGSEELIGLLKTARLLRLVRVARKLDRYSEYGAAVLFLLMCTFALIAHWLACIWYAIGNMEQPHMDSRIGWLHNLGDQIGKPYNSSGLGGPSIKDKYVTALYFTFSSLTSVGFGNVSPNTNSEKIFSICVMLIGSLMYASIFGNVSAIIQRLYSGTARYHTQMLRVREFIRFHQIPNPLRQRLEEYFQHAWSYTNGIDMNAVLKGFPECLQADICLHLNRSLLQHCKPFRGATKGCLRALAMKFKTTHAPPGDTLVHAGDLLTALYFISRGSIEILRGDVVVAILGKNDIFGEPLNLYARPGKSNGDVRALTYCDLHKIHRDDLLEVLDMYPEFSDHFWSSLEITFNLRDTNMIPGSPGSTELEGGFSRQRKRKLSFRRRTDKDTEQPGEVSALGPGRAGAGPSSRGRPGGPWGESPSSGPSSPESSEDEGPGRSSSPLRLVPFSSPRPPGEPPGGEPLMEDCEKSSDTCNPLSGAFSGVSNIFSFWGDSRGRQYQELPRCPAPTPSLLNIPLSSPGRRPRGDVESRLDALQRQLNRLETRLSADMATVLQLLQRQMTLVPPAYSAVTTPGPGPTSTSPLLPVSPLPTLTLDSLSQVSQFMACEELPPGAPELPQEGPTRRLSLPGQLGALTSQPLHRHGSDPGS

T2 sequence (P54750 whole entry): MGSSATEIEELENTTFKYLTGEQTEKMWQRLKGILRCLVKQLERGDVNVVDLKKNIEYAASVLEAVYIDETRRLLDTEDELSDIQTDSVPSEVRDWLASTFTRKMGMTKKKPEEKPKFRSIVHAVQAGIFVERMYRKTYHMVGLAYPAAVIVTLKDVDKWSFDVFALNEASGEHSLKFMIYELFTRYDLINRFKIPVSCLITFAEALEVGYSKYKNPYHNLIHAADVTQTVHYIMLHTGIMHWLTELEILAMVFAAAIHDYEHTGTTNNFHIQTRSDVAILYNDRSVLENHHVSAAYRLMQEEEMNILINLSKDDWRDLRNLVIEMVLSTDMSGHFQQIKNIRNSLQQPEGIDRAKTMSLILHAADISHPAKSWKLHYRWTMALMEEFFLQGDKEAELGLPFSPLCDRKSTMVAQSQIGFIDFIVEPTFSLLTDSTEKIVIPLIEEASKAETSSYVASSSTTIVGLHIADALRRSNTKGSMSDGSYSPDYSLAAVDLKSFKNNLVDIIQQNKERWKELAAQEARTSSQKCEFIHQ
T1 sequence (O00408 whole entry): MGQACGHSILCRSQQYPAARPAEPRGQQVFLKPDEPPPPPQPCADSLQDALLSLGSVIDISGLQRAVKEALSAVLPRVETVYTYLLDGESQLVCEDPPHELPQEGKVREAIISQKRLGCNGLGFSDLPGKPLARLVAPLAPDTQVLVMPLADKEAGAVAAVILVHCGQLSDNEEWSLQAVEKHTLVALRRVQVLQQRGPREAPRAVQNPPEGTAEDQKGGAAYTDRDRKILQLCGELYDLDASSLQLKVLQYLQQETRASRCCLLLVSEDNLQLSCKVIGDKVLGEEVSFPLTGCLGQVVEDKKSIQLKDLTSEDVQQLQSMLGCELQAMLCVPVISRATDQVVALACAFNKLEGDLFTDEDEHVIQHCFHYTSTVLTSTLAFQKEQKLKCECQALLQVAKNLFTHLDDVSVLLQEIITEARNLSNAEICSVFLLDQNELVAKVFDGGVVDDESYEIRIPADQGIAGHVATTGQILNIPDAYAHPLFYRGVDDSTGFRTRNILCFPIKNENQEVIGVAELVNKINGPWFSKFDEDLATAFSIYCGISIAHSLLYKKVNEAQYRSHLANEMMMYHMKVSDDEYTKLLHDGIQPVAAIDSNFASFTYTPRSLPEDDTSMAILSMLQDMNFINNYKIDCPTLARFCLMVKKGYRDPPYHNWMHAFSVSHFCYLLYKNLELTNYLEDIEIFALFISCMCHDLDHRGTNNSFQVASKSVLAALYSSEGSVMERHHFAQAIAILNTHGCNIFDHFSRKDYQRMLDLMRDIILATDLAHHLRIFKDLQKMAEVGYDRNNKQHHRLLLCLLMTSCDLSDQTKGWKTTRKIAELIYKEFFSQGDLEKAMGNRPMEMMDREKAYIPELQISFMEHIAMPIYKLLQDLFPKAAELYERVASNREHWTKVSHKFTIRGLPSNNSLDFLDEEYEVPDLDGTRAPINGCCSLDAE

## N#Cc1ccc(Oc2ccc3c(c2)COB3O)cc1 [C17, 5-(4-cyanophenoxy)-1-hydroxy-1,3-dihydro-2,1-benzoxaborole]
TNF-α
  IC50: < 1000 nM
IL-2
  IC50: < 1000 nM
[1]; Homo sapiens, PBMCs stimulated by LPS, read-out: TNF-α secretion IC50
  IC50: 770 nM
[1]; LPS- and PHA-induced cytokine production by human PBMCs, read-out: IC50 TNFα (pro-inflammatory cytokines)
  IC50: < 1000 nM
IL-10
  IC50: 4000 to 10000 nM
PDE2
  inhibition of PDE2: does not significantly inhibit
[2]; PBMC, LPS- and PHA-induced cytokine production by human PBMCs, read-out: IC50 IL-6 (pro-inflammatory cytokines)
  IC50: > 30000 nM
[2]; PBMCs
  effect on IL-6: not affected
Female CBA/J mice; mouse, in vivo
  skin sensitizing activity: not considered to have skin sensitizing activity
Female CBA/J mice; topical 1%, 5%, and 10% solution in acetone/ethanol (50:50, v/v)
  stimulation index: < 3
PDE1A3
  inhibition of PDE1: does not significantly inhibit
PDE1A3; standard: 8-methoxymethyl-IBMX
  IC50: 1000 to 10000 nM
IFN-γ
  IC50: < 1000 nM
[3]
  mode of inhibition (enzyme kinetic analysis): competitive inhibitor
PDE4Cat
  IC50: < 1000 nM
Shrews (Suncus murinus)
  no-observed-effect level (NOEL), emesis: 10 mg/kg
[4]; Homo sapiens, PBMCs stimulated with PHA, read-out: IFN-γ secretion IC50
  IC50: 270 nM
[4]; LPS- and PHA-induced cytokine production by human PBMCs, read-out: IC50 IFNg (Th1 cytokines)
  IC50: < 1000 nM
[5]; PBMC, LPS- and PHA-induced cytokine production by human PBMCs, read-out: IC50 IL-10 (Th2 cytokines)
  IC50: < 1000 nM
[5]; PBMCs
  IL-10 inhibition, range in words: low micromolar range
[6]; PBMC, LPS- and PHA-induced cytokine production by human PBMCs, read-out: IC50 IL-1β (pro-inflammatory cytokines)
  IC50: > 30000 nM
[6]; PBMCs
  effect on IL-1: not affected
[7]; Homo sapiens, PBMCs stimulated with PHA, read-out: IL-2 secretion IC50
  IC50: 460 nM
[7]; LPS- and PHA-induced cytokine production by human PBMCs, read-out: IC50 IL-2 (Th1 cytokines)
  IC50: < 1000 nM
MCP-1 and PGE2
  release of the chemokine MCP-1 and PGE2: inhibits the release
[8]; human THP-1 macrophages, read-out: IL-23 production IC50
  IC50: 2250 nM
[8]; human THP-1 monocytic cells stimulated with IFN-g and LPS, read-out: IC50 IL-23*
  IC50: 1000 to 10000 nM
IL-5
  IC50: 1000 to 4000 nM
[9]; PBMC, LPS- and PHA-induced cytokine production by human PBMCs, read-out: IC50 IL-5 (Th2 cytokines)
  IC50: 1000 to 10000 nM
[9]; PBMCs
  IL-5 inhibition, range in words: low micromolar range
[10]
  mutagenic activity: no mutagenic activity
[11]
  release of pro-inflammatory cytokines including TNF-α, IFN-γ, IL-1μ, IL-2, IL-4, IL-5, IL-6, IL-8, IL-10, IL-12, and IL-23: inhibition of the release
All four PDE4 isoforms
  inhibition of PDE4 isoforms: inhibiting all four PDE4 isoforms equally
PDE5
  inhibition of PDE5: does not significantly inhibit
[12]
  inhibition in vivo at 1 mg: 60 to 90%
hERG-channel
  hERG-channel blocker classification: low potency hERG-channel blocker
